Source: patent US20240336564A1, “COMPOUND, RUBBER MIXTURE CONTAINING THE COMPOUND, VEHICLE TIRE WHICH HAS AT LEAST ONE COMPONENT COMPRISING THE RUBBER MIXTURE, PROCESS FOR PREPARING THE COMPOUND, AND USE OF THE COMPOUND AS AN AGING PROTECTION AGENT AND/OR ANTIOZONANT AND/OR COLORANT” (CONTINENTAL REIFEN DEUTSCHLAND GMBH, priority 2021, published 2024)

Test: Measurement of oxidation induction time (OIT) by DSC
Conditions: with liquid polyisoprene LIR-50, isothermal 180° C., O2 atmosphere 50 mL/min, DSC peak; measurement accuracy ±10 min
Method: The compound of formula III) was investigated under laboratory conditions for their potential protective effect as aging stabilizers by measurement of the oxidation induction time.
To this end the compounds of formula III) and 6-PPD in each case together with a polymer (liquid synthetic polyisoprene (IR), LIR-50, Kuraray, weight average molecular weight distribution MW=54 000 g/mol, glass transition temperature Tg=−63° C.) were heated at constant temperature (180° C.) until onset of oxidation (start temperature 35° C., heating to 170° C. at a heating rate of 20 K/min (kelvin per minute), heating to 180° C. at a heating rate of 1 K/min; purge gas: nitrogen (N2), volume flow 50 mL/min). The specimen was isothermally maintained for 5 minutes at 180° C. under an N2 atmosphere and the atmosphere was then switched to an O2 atmosphere (volume flow 50 mL/min).
Oxidation was determined via a peak using DSC (differential scanning calorimetry).
The time in minutes to oxidation was measured.

Structure (SMILES) | Oxidation induction time (time to oxidation) [min]
CC(C)CC(C)Nc1ccc(-c2cc3ccccc3[nH]2)cc1 (centres unmarked) | 121 ± 10
CC(C)CC(C)Nc1ccc(Nc2ccccc2)cc1 (centres unmarked) [Compound 6-PPD, N-(1,3-dimethylbutyl)-N′-phenyl-p-phenylenediamine] | 116 ± 10
